Reference: US12558430B2, “Dual amylin and calcitonin receptor agonists and uses thereof” (Eli Lilly and Company, priority 2020, dated 2026)
Read-outs that look alike come from different tables or passages of the source. Each block holds one molecule with its values, some of them ahead of it. Starred links: 1 amine or outer side, 2 acyl side, 3 side chain; linkers in the order of their positions; H or OH if unused. Non-standard residues stand in square brackets, D forms with d. Residues, ends and D or L forms follow the SMILES beside them. Groups on a side chain read outwards from the residue. *: point of attachment. C20 diacid = O=C(O)CCCCCCCCCCCCCCCCCCC(=O)*; γGlu = O=C(O)[C@H](CCC(=O)[*:2])N[*:1]; AEEA = NCCOCCOCC(=O)O; Aib = CC(C)(N)C(=O)O

Columns and labels:
[1] = background statement; cited from earlier work
human AMY1 receptor = human AMY1 receptor (Homo sapiens, UniProt O60894+P30988); assay: hAMY1 cAMP functional assay (HTRF); assay type: cell-based
human AMY1 receptor, sequence (O60894 27-148, one chain of several): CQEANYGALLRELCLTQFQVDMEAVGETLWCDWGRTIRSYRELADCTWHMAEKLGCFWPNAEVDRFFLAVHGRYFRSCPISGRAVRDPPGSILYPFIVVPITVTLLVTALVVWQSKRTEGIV
Method: The AMY1 and CT receptors are GPCRs that are functionally coupled to Gαs proteins. Stimulation of these receptors results in an increased production of intracellular cAMP, which can be detected using standard in vitro technologies. Human AMY1 or CT receptors are stably expressed in human urinary bladder cells (UM-UC-3) cells under control of a pcDNA (CALCR) or pCMV piggybac (RAMP1) expression vector. AMY1 cells are cultured in MEM 1X (Corning) supplemented with 10% FBS, 1% antibiotic/antimycotic solution, 1 mM sodium pyruvate, 1X MEM NEAA, 1X GlutaMAX-I, 200 μg/mL hygromycin B, and 0.4 μg/mL puromycin. CT cells are cultured in the same medium except that it lacks the puromycin. Cultured cells are grown to 70% confluency, and then incubated overnight with fresh medium.
On the assay day, 10 μL of assay buffer (phenol red free MEM (Corning, cat #17-305-CV), 0.1% casein, 0.5 mM IBMX, 5 mM HEPES, pH 7.4) is dispensed into each well of white poly-D-lysine coated 384-well plates (Corning cat #354661). […]
The amount of intracellular cAMP is quantitated using HTRF technology (Homogeneous Time Resolved Fluorescence; Cisbio) as per vendor instructions. […] The HTRF signal is immediately detected using an Envision plate reader (Perkin-Elmer) to calculate the ratio of fluorescence at 665 to 620 nm. […]

human CT receptor = biological target: T1, human CT receptor (Homo sapiens, UniProt P30988); assay: hCT cAMP functional assay (HTRF); assay type: cell-based
T1 sequence (P30988 25-474): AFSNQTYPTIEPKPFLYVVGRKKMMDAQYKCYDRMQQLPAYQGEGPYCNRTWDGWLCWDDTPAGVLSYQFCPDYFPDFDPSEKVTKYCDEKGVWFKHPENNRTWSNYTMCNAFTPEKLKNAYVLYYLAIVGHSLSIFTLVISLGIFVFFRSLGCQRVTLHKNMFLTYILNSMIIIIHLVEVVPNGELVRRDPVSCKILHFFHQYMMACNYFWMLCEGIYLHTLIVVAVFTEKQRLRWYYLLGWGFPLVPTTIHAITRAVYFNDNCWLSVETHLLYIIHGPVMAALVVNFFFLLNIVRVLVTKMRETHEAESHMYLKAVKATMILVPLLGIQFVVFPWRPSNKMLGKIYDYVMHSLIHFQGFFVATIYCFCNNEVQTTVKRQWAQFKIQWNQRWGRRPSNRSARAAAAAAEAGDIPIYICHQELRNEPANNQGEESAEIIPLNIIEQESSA

DIO male Long Evans rats = assay: DIO rats: Compound II in combination with other incretin compounds; assay type: in vivo, rat; conditions: mean ± SEM; for Cumulative Food Intake: 14-day treatment period; for Body Weight Change: Day −1 to Day 14
Method: This study is conducted to investigate the effect of Compound II for diabetes and/or obesity conditions in DIO rats when administered in combination with other incretin compounds, including a GLP-1 agonist (Compound III), oxyntomodulin analog (Compound IV), and a triagonist of glucagon, GLP-1, and GIP (Compound V). Diet-induced obese (DIO) male Long Evans (Envigo) rats, maintained on a calorie rich diet since arrival at Lilly (TD95217; Teklad, Madison, Wis.), are used in the following studies. Animals are individually housed in a temperature-controlled (24° C.) facility with 12-hour light/dark cycle (lights on 2200) and free access to food (TD95217) and water.
The rats are randomized according to their body weight, so that each experimental group of animals would have similar body weight. The body weights range from 529 to 823 grams.
Each group contains five rats. Vehicle and Compound II (1 nmol/kg) are dissolved in vehicle (40 mM Tris-HCl pH8+0.02% PS80) and are administered by subcutaneous (SC) injection (1 mL/kg) to ad libitum fed DIO rats 30 to 90 minutes prior to the onset of the dark cycle every 3 days for 14 days. SC injections are made on Days 1, 4, 7, 10 and 13. Body weight and food intake are measured daily throughout the study. Absolute changes in body weight are calculated by subtracting the body weight of the same animal prior to the first injection of molecule.
At the end of the study, blood is collected to measure blood glucose and plasma insulin. Blood glucose is measured by AccuChek glucometers (Roche, Indianapolis, Ind.). Insulin is measured by ELISA (MSD, Rockville, Md.).
All data are presented as mean±SEM of 5 animals per group. Statistical analysis is performed using one-way ANOVA, followed by Tukey's multiple comparison test to compare treatment groups to vehicle group or each other. Significant differences are identified at p<0.05.

[2] = Rat pharmacokinetics, single subcutaneous dose; assay type: in vivo; conditions: male, Sprague Dawley, plasma, sc, 20 nmol/kg, single 20 nmol/kg SC
Method: (§1) Plasma concentration of Compound II is determined by a qualified Liquid Chromatography Mass Spectrometry (LC/MS) method at Q Squared Solutions BioSciences LLC, Ithaca, N.Y. Compound II and an analog as an internal standard are extracted from 100% species-specific plasma using protein precipitation followed by solid phase extraction. The intact mass of Compound II which includes peptide plus acyl chain is detected by a Q-Exactive Orbitrap™ mass spectrometer.
In a rat pharmacokinetic study, male Sprague Dawley rats are administered a single subcutaneous dose of 20 nmol/kg (0.084 mg/kg) of Compound II in Tris-mannitol buffer (pH 8.0) at a volume of 0.2 mL/kg. Blood is collected at 1-, 3-, 6-, 12-, 24-, 48-, 72-, 96-, 120-, and 144-hours post-dose for pharmacokinetic characterization.

[3] = system: Primary human dendritic cells
[4] = Monkey pharmacokinetics, single subcutaneous dose; assay type: in vivo; conditions: cynomolgus monkey, plasma, sc, 20 nmol/kg, single 20 nmol/kg SC
Method: as §1
In a monkey pharmacokinetics study, male and female Cynomolgus monkeys are administered a single subcutaneous dose of 20 nmol/kg (0.084 mg/kg) of Compound II in Tris-mannitol buffer (pH 8.0) at a volume of 0.2 mL/kg. Blood is collected predose and at 1, 3, 6, 12, 24, 48, 72, 96, 120, 144, 168, 240, 336, 408, 504 hours postdose for pharmacokinetic characterization.

Molecule: Salmon calcitonin
half-life [1]: less than two hours

EC50 (human AMY1 receptor): 0.0493 ± 0.00804 nM
EC50 (human CT receptor): 0.0317 ± 0.0058 nM
Molecule: CC(=O)N[C@@H](C)C(=O)N[C@@H](CO)C(=O)N[C@@H](Cc1c[nH]cn1)C(=O)N[C@@H](CC(C)C)C(=O)N[C@@H](CO)C(=O)N[C@H](C(=O)N[C@@H](C)C(=O)N[C@H](C(=O)N[C@@H](CC(C)C)C(=O)NCC(=O)N[C@@H](CCCCN)C(=O)N[C@@H](CC(C)C)C(=O)N[C@@H](CO)C(=O)NC(C)(C)C(=O)N[C@@H](CCC(=O)O)C(=O)N[C@@H](CC(C)C)C(=O)N[C@@H](Cc1c[nH]cn1)C(=O)N[C@@H](CCCCN)C(=O)N[C@@H](CC(C)C)C(=O)N[C@@H](CCC(=O)O)C(=O)N[C@@H](CC(=O)O)C(=O)N[C@@H](Cc1ccc(O)cc1)C(=O)N1CCC[C@H]1C(=O)N[C@@H](CCCNC(=N)N)C(=O)N[C@H](C(=O)N[C@@H](CC(=O)O)C(=O)N[C@H](C(=O)NCC(=O)N[C@@H](C)C(=O)N[C@@H](CCC(=O)O)C(=O)N[C@@H](CO)C(=O)N1CCC[C@H]1C(N)=O)C(C)C)[C@@H](C)O)C(C)C)[C@@H](C)O [Compound I] (Ac-ASHLSTAVLGKLS[Aib]ELHKLEDYPRTDVGAESP-NH2)

Molecule: Y-Aib-QGTFTSDYSI-αMeL-LDKK((2-[2-(2-Amino-ethoxy)-ethoxy]-acetyl)-(γGlu)-CO-(CH2)18-CO2H)AQ-Aib-AFIEYLLEGGPSSGAPPPS-NH2 (YXQGTFTSDYSIXLDKKAQXAFIEYLLEGGPSSGAPPPS; Aib, αMeL; lipidated Lys; C-terminal amide; SITE 2 X at position 2 is Aib; SITE 13 X at position 13 is alpha-methyl-Leu; MOD_RES 17 The Lys at position 17 is chemically modified by conjugation of the epsilon amino group of the Lys sidechain with 2-[2-(2-Amino-ethoxy)-ethoxy]-acetyl)-(gamma-Glu)-CO-(CH2)18-CO2H; SITE 20 X at position 20 is Aib; MOD_RES 39 C-terminus is amidated) [Compound V, triagonist of glucagon, GLP-1, and GIP]
Cumulative Food Intake (DIO male Long Evans rats; 3 nmol/kg SC every three days): 157.50 ± 10.63 g
Body Weight Change (DIO male Long Evans rats; 3 nmol/kg SC every three days): -43.28 ± 2.54 g

EC50 (human AMY1 receptor): 0.0494 ± 0.00514 nM
EC50 (human CT receptor): 0.0409 ± 0.0147 nM
AUC(0-inf) ([2]; Mean): 8.59 µM·h
CL/F ([2]; Mean): 2.33 mL/h/kg
Cmax ([2]; Mean): 90 nM
Tmax ([2]; Mean): 24 h
half-life ([2]; Mean): 58 h
AUC(0-inf) ([2]; animal R0001): 8.41 µM·h
CL/F ([2]; animal R0001): 2.38 mL/h/kg
Cmax ([2]; animal R0001): 88 nM
Tmax ([2]; animal R0001): 48 h
half-life ([2]; animal R0001): 47 h
AUC(0-inf) ([2]; animal R0002): 8.7 µM·h
CL/F ([2]; animal R0002): 2.3 mL/h/kg
Cmax ([2]; animal R0002): 81 nM
Tmax ([2]; animal R0002): 12 h
half-life ([2]; animal R0002): 60 h
AUC(0-inf) ([2]; animal R0003): 8.65 µM·h
CL/F ([2]; animal R0003): 2.31 mL/h/kg
Cmax ([2]; animal R0003): 99 nM
Tmax ([2]; animal R0003): 12 h
half-life ([2]; animal R0003): 67 h
# of clusters [3]: 0
% Donors (displaying non-germline residues) [3]: 0%
immunogenicity risk (MAPPs) [3]: low level of immunogenicity risk
% Positive Donors (CD4+ T cells): 12.5%
CDI Range High (CD4+ T cells): 19.7
CDI Range Low (CD4+ T cells): 0.7
Median CDI (All donors) (CD4+ T cells): 1.0
Median CDI (Positive Donors) (CD4+ T cells): 19.7
Number of donors (positive/tested) (CD4+ T cells): 1/8
AUC(0-inf) ([4]; both sexes, Mean): 47.5 µM·h
CL/F ([4]; both sexes, Mean): 0.42 mL/h/kg
Cmax ([4]; both sexes, Mean): 168 nM
Tmax ([4]; both sexes, Mean): 42 h
half-life ([4]; both sexes, Mean): 178 h
AUC(0-inf) ([4]; animal P0001): 50.4 µM·h
CL/F ([4]; animal P0001): 0.4 mL/h/kg
Cmax ([4]; animal P0001): 198 nM
Tmax ([4]; animal P0001): 12 h
half-life ([4]; animal P0001): 185 h
AUC(0-inf) ([4]; animal P0101): 44.7 µM·h
CL/F ([4]; animal P0101): 0.45 mL/h/kg
Cmax ([4]; animal P0101): 138 nM
Tmax ([4]; animal P0101): 72 h
half-life ([4]; animal P0101): 170 h
Molecule: CC(=O)N[C@@H](C)C(=O)N[C@@H](CO)C(=O)N[C@@H](Cc1c[nH]cn1)C(=O)N[C@@H](CC(C)C)C(=O)N[C@@H](CO)C(=O)N[C@H](C(=O)N[C@@H](C)C(=O)N[C@H](C(=O)N[C@@H](CC(C)C)C(=O)NCC(=O)N[C@@H](CCCCNC(=O)COCCOCCNC(=O)COCCOCCNC(=O)CC[C@H](NC(=O)CCCCCCCCCCCCCCCCCCC(=O)O)C(=O)O)C(=O)N[C@@H](CC(C)C)C(=O)N[C@@H](CO)C(=O)NC(C)(C)C(=O)N[C@@H](CCC(=O)O)C(=O)N[C@@H](CC(C)C)C(=O)N[C@@H](Cc1c[nH]cn1)C(=O)N[C@@H](CCCCN)C(=O)N[C@@H](CC(C)C)C(=O)N[C@@H](CCC(=O)O)C(=O)N[C@@H](CC(=O)O)C(=O)N[C@@H](Cc1ccc(O)cc1)C(=O)N1CCC[C@H]1C(=O)N[C@@H](CCCNC(=N)N)C(=O)N[C@H](C(=O)N[C@@H](CC(=O)O)C(=O)N[C@H](C(=O)NCC(=O)N[C@@H](C)C(=O)N[C@@H](CCC(=O)O)C(=O)N[C@@H](CO)C(=O)N1CCC[C@H]1C(N)=O)C(C)C)[C@@H](C)O)C(C)C)[C@@H](C)O [Compound II] (Ac-ASHLSTAVLGK([AEEA-AEEA-γGlu-C20 diacid])LS[Aib]ELHKLEDYPRTDVGAESP-NH2)
immunogenicity risk (T cell proliferation) (CD4+ T cells): low level of immunogenicity risk

Molecule: H-Aib-QGTFTSDYSKYLDEKKAK((2-[2-(2-Amino-ethoxy)-ethoxy]-acetyl)2-(γGlu)-CO-(CH2)18-CO2H)EFVEWLLEGGPSSG-NH2 (H-H[Aib]QGTFTSDYSKYLDEKKAK([AEEA-AEEA-γGlu-C20 diacid])EFVEWLLEGGPSSG-NH2) [Compound IV, oxyntomodulin analog]
Cumulative Food Intake (DIO male Long Evans rats; 10 nmol/kg SC every three days): 165.86 ± 7.45 g
Body Weight Change (DIO male Long Evans rats; 10 nmol/kg SC every three days): -50.24 ± 6.36 g
